The term Ki denotes a measure of affinity in units of concentration, obtained from inhibition or displacement. Broadly, the IC50 is the concentration needed to halve the response being measured.

Molecules are shown by their SMILES. Like-named read-outs stand apart in the source and are kept apart here.

In one experiment the target is T1, human ETA receptor (Homo sapiens, UniProt P25101).
T1 construct: expressed in transfected cells; host or cells: CHO cells (membranes)
T1 sequence (P25101 21-427): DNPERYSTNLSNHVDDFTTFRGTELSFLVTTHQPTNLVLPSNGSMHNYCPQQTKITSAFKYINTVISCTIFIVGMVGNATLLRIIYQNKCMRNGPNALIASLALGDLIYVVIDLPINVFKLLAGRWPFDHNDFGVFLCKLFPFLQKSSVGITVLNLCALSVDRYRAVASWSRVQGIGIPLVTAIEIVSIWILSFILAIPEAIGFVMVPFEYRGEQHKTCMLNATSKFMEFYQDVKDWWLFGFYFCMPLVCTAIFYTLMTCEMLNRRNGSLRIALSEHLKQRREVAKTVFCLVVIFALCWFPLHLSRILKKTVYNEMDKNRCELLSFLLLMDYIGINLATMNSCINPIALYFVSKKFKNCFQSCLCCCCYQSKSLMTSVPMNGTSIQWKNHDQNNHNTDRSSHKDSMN
Briefly: Receptor-binding studies, ETA receptor binding assay ([125I]-ET1). The method, then:
After 48 h, the cells were washed with PBS and incubated with 0.05% trypsin-containing PBS for 5 min. […] The membranes were centrifuged at 20,000×g for 10 min, and the pellet was stored in liquid nitrogen. […] (ETB receptor assay) in the presence and absence of test substance. The non-specific binding was determined using 10^-7 M ET1. After 30 min, the free and the bound radioligand were separated by filtration through a GF/B glass fiber filter (Whatman, England) in a Skatron cell collector (Skatron, Lier, Norway), and the filters were washed with ice-cold tris-HCl buffer, pH 7.4 with 0.2% BSA. The radioactivity collected on the filters was quantified using a Packard 2200 CA liquid scintillation counter. The Ki values were determined by non-linear regression analysis using the LIGAND program.

In a further experiment the target is T2, ETB receptor (Cavia porcellus, UniProt H0VTF3).
T2 construct: Guinea pig cerebella were homogenized in a Potter-Elvejhem homogenizer; from tissue; host or cells: guinea pig cerebellum (membranes)
T2 sequence (H0VTF3 27-415): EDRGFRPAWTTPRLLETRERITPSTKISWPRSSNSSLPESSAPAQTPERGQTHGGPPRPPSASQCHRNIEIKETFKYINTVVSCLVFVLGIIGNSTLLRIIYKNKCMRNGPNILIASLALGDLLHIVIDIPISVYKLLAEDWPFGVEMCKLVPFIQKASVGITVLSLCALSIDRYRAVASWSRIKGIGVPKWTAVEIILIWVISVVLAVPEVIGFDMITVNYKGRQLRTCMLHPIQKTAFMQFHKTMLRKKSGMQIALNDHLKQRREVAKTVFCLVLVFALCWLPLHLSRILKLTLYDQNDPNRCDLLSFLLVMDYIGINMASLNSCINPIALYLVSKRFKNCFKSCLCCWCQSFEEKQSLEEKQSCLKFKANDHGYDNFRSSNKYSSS
Briefly: Receptor-binding studies, ETB receptor binding assay ([125I]-RZ3, guinea pig cerebellar membranes). The method, then: Cloned human ETA receptor-expressing CHO cells and guinea pig cerebellar membranes with>60% ETB receptors compared with ETA receptors were used for binding studies.
Guinea pig cerebella were homogenized in a Potter-Elvejhem homogenizer and obtained by differential centrifugation at 1000×g for 10 min and repeated centrifugation of the supernatant at 20,000×g for 10 min.
(ETB receptor assay) in the presence and absence of test substance. The non-specific binding was determined using 10^-7 M ET1. After 30 min, the free and the bound radioligand were separated by filtration through a GF/B glass fiber filter (Whatman, England) in a Skatron cell collector (Skatron, Lier, Norway), and the filters were washed with ice-cold tris-HCl buffer, pH 7.4 with 0.2% BSA. The radioactivity collected on the filters was quantified using a Packard 2200 CA liquid scintillation counter.
The Ki values were determined by non-linear regression analysis using the LIGAND program.

In experiment [1] the target is T3, endothelin receptor of subtype A (Rattus norvegicus, UniProt P26684).
T3 construct: endogenous endothelin receptor of subtype A has been detected; endogenous in cells
T3 sequence (P26684 21-426): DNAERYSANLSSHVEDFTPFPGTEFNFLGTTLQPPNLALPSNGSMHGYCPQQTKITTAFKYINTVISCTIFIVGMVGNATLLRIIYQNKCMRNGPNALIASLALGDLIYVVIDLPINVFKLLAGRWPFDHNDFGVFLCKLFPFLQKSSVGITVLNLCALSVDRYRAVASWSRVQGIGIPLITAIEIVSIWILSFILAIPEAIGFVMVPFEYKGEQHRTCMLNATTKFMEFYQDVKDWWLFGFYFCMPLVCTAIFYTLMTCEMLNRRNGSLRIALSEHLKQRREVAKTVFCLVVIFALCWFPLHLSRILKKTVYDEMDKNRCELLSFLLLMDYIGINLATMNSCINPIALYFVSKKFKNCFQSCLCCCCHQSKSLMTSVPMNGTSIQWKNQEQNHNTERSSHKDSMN
The experiment is described as follows: Functional in vitro assay system for endothelin receptor (subtype A) antagonists (ET1-induced intracellular calcium increase). It is filed as cell-based. From the text: Functional in vitro assay system for searching for endothelin receptor (subtype A) antagonists This assay system is a functional cell-based assay for endothelin receptors. Certain cells when stimulated with endothelin 1 (ET1) show an increase in the intracellular calcium concentration. This increase can be measured in intact cells which have been loaded with calcium-sensitive dyes. […] The cells were then washed twice with buffer A and resuspended at 2 10^6 /ml. The fluorescence signal at Ex/Em 380/510 from 2×10^5 cells per mL was recorded continuously at 30° C. The test substances were added to the cells and, after incubation with ET1 for 3 min, the maximum change in the fluorescence was determined. The response of the cells to ET1 without previous addition of a test substance served as control and was set equal to 100%.

Take `COc1cc(OC)nc(OC(C(=O)O)C(C)(Oc2ccc(C(C)C)cc2)c2ccccc2)n1` (stereo not drawn) [Compound 4.42]: the Ki was determined as 250 nM on human ETA receptor (cloned human ETA receptor-expressing CHO cell membranes, 25 pM [125I]-ET1, 25° C., 30 min, read-out: Ki ET-A) and 3000 nM at ETB receptor (guinea pig cerebellar membranes, 25 pM [125I]-RZ3, 25° C., 30 min, read-out: Ki ET-B). For the same compound, in experiment [1] (rat fibroblasts loaded with Fura 2-am, ET1-induced fluorescence change, 30° C., read-out: IC50), the IC50 was 740 nM.
For `COc1cc(OC)nc(OC(C(=O)O)C(C)(Oc2ccc(SC)cc2)c2ccccc2)n1` (stereo not drawn) [Compound 4.58], the Ki at human ETA receptor amounted to 160 nM; on ETB receptor, 4700 nM. Besides, the IC50 in experiment [1] came out at 1000 nM.

For the origin of these results see US5840722A, “Use of carboxylic acid derivatives as drugs” (BASF Aktiengesellschaft, priority 1994, dated 1998).
